Patent US20250041429A1, “COMPOUND HAVING BTK PROTEIN DEGRADATION ACTIVITY, AND MEDICAL USES THEREOF” (UBIX THERAPEUTICS, INC., priority 2021, published 2025)

Molecular target: T1, BTK protein (Homo sapiens, UniProt Q06187)
T1 construct: endogenous in cells; host or cells: TMD-8 cells
Assay: Measurement of BTK protein degradation ability in TMD-8 cells (Western blotting)
Format: cell-based
Conditions: harvested after 24 hours; for BTK degradation (%) 1 nM: compound 1 nM; for BTK degradation (%) 10 nM: compound 10 nM; for BTK degradation (%) 100 nM: compound 100 nM
Method in brief: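 TMD-8 cells (1×10^6/mL) were treated for 24 h with compound at 0.1, 1, 10 μM or 0.0001–0.1 μM, with DMSO as vehicle control. RIPA lysates were normalized by BCA assay. BTK was detected by Western blot with anti-BTK, using GAPDH or β-actin as loading controls, and imaged on LI-COR Odyssey.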

T1 sequence (Q06187 whole entry): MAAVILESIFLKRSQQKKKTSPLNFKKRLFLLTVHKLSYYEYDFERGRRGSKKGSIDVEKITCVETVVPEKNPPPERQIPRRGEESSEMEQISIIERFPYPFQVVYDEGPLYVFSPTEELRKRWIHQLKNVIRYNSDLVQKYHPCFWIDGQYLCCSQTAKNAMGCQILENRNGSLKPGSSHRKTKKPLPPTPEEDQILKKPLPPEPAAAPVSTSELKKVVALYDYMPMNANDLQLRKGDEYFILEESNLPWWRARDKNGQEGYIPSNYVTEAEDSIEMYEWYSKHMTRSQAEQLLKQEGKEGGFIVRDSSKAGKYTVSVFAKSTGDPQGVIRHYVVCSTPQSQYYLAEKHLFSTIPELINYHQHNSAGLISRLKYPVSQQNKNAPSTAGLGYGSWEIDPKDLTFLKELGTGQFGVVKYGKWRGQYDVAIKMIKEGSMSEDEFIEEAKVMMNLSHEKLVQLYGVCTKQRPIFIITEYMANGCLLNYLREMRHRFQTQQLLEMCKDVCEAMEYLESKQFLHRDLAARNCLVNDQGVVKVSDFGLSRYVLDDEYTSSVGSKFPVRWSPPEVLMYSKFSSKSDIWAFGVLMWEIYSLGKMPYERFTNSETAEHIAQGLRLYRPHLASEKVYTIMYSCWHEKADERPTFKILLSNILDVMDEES

Row | BTK degradation (%) 1 nM | BTK degradation (%) 10 nM | BTK degradation (%) 100 nM | Compound
1 | 51.0% | 96.5% | 99.5% | Cc1cc(-c2ccnc(Nc3ccc(N4CCN(CC5CCN(c6cccc(N7CCC(=O)NC7=O)c6)CC5)CC4)nc3)n2)ccc1CNC(=O)c1cnn(C(C)(C)C)c1 [Example 83, 1-(tert-butyl)-N-(4-(2-((6-(4-((1-(3-(2,4-dioxotetrahydropyrimidin-1 (2H)-yl)phenyl)piperidin-4-yl)methyl)piperazin-1-yl)pyridin-3-yl)amino)pyrimidin-4-yl)-2-methylbenzyl)-1H-pyrazole-4-carboxamide]
2 | 39.5% | 97.0% | 100.0% | Cc1cc(-c2ccnc(Nc3ccc(N4CC(CN5CCN(C(=O)c6cccc(NC7CCC(=O)NC7=O)c6)CC5)C4)cc3)n2)ccc1CNC(=O)N1CC(OC(C)C)C1 (centres unmarked) [Example 113, N-(4-(2-((4-(3-((4-(3-((2,6-dioxopiperidin-3-yl)amino)benzoyl)piperazin-1-yl)methyl)azetidin-1-yl)phenyl)amino)pyrimidin-4-yl)-2-methylbenzyl)-3-isopropoxyazetidine-1-carboxamide]
3 | 19.0% | 82.5% | 94.0% | Cc1cc(-c2ccnc(Nc3ccc(N4CCN(CC5CCN(C(=O)c6cccc(OC7CCC(=O)NC7=O)c6)CC5)CC4)cc3)n2)ccc1CNC(=O)N1CC(OC(C)C)C1 (centres unmarked) [Example 102, N-(4-(2-((4-(4-((1-(3-((2,6-dioxopiperidin-3-yl)oxy)benzoyl)piperidin-4-yl)methyl)piperazin-1-yl)phenyl)amino)pyrimidin-4-yl)-2-methylbenzyl)-3-isopropoxyazetidine-1-carboxamide]
4 | 14.0% | 87.0% | 98.0% | Cc1cc(-c2ccnc(Nc3ccc(CN4CCN(CC5CCN(c6ccc(N7CCC(=O)NC7=O)cc6)CC5)CC4)cc3)n2)ccc1CNC(=O)c1cn(C(C)(C)C)nn1 [Example 75, 1-(tert-butyl)-N-(4-(2-((4-((4-((1-(4-(2,4-dioxotetrahydropyrimidin-1 (2H)-yl)phenyl)piperidin-4-yl)methyl)piperazin-1-yl)methyl)phenyl)amino)pyrimidin-4-yl)-2-methylbenzyl)-1H-1,2,3-triazole-4-carboxamide]
5 | 43.3% | 94.0% | 99.3% | Cc1cc(-c2ccnc(Nc3ccc(N4CCC(CN5CCN(c6ccc(NC7CCC(=O)NC7=O)cn6)CC5)CC4)cc3)n2)ccc1CNC(=O)N1CC(OC(C)C)C1 (centres unmarked) [Example 127, N-(4-(2-((4-(4-((4-(5-((2,6-dioxopiperidin-3-yl)amino)pyridin-2-yl)piperazin-1-yl)methyl)piperidin-1-yl)phenyl)amino)pyrimidin-4-yl)-2-methylbenzyl)-3-isopropoxyazetidine-1-carboxamide]
6 | 54.5% | 95.5% | 100.0% | Cc1cc(-c2ccnc(Nc3ccc(N4CCC(CN5CCC(c6ccc(NC7CCC(=O)NC7=O)cn6)CC5)CC4)cc3)n2)ccc1CNC(=O)c1cn(C(C)(C)C)nn1 (centres unmarked) [Example 132, 1-(tert-butyl)-N-(4-(2-((4-(4-((4-(5-((2,6-dioxopiperidin-3-yl)amino)pyridin-2-yl)piperidin-1-yl)methyl)piperidin-1-yl)phenyl)amino)pyrimidin-4-yl)-2-methylbenzyl)-1H-1,2,3-triazole-4-carboxamide]
7 | 7.0% | 33.5% | 89.0% | Cc1cc(-c2ccnc(Nc3cnn(C4CCN(CC5CN(C(=O)c6cccc(NC7CCC(=O)NC7=O)c6)C5)CC4)c3)n2)ccc1CNC(=O)N1CC(OC(C)C)C1 (centres unmarked) [Example 92, N-(4-(2-((1-(1-((1-(3-((2,6-dioxopiperidin-3-yl)amino)benzoyl)azetidin-3-yl)methyl)piperidin-4-yl)-1H-pyrazol-4-yl)amino)pyrimidin-4-yl)-2-methylbenzyl)-3-isopropoxyazetidine-1-carboxamide]
8 | 61.5% | 95.0% | 99.5% | Cc1cc(-c2ccnc(Nc3ccc(CN4CCN(CC5CCN(c6cccc(NC7CCC(=O)NC7=O)c6)CC5)CC4)cc3)n2)ccc1CNC(=O)c1cn(C(C)(C)C)nn1 (centres unmarked) [Example 69, 1-(tert-butyl)-N-(4-(2-((4-((4-((1-(3-((2,6-dioxopiperidin-3-yl)amino)phenyl)piperidin-4-yl)methyl)piperazin-1-yl)methyl)phenyl)amino)pyrimidin-4-yl)-2-methylbenzyl)-1H-1,2,3-triazole-4-carboxamide]
9 | 22% | 90% | 97.5% | COc1ccc(C(=O)N2CCC(CN3CCN(c4ccc(Nc5nccc(-c6ccc(CNC(=O)N7CC(OC(C)C)C7)c(C)c6)n5)cc4)CC3)CC2)cc1N1CCC(=O)NC1=O [Example 86, N-(4-(2-((4-(4-((1-(3-(2,4-dioxotetrahydropyrimidin-1 (2H)-yl)-4-methoxybenzoyl)piperidin-4-yl)methyl)piperazin-1-yl)phenyl)amino)pyrimidin-4-yl)-2-methylbenzyl)-3-isopropoxyazetidine-1-carboxamide]
10 | 26.0% | 92.5% | 98.0% | Cc1cc(-c2ccnc(Nc3ccc(C4CCN(CC5CCN(c6ccc(N7CCC(=O)NC7=O)cc6)CC5)CC4)cc3)n2)ccc1CNC(=O)c1cn(C(C)(C)C)nn1 [Example 79, 1-(tert-butyl)-N-(4-(2-((4-(1-((1-(4-(2,4-dioxotetrahydropyrimidin-1 (2H)-yl)phenyl)piperidin-4-yl)methyl)piperidin-4-yl)phenyl)amino)pyrimidin-4-yl)-2-methylbenzyl)-1H-1,2,3-triazole-4-carboxamide]

The remaining lines, values behind:

Row | Compound | BTK degradation (%) 1 nM | BTK degradation (%) 10 nM | BTK degradation (%) 100 nM
11 | Cc1cc(-c2ccnc(Nc3ccc(N4CCN(CC5CN(c6ccc7c(c6)C(=O)N(C6CCC(=O)NC6=O)C7=O)C5)CC4)cc3)n2)ccc1CNC(=O)c1cn(C(C)(C)C)nn1 (centres unmarked) [Example 32, 1-(tert-butyl)-N-(4-(2-((4-(4-((1-(2-(2,6-dioxopiperidin-3-yl)-1,3-dioxoisoindolin-5-yl)azetidin-3-yl)methyl)piperazin-1-yl)phenyl)amino)pyrimidin-4-yl)-2-methylbenzyl)-1H-1,2,3-triazole-4-carboxamide] | 58.5% | 92% | 98.5%
12 | Cc1cc(-c2ccnc(Nc3ccc(C4CCN(CC5CCN(c6ccc(OC7CCC(=O)NC7=O)cn6)CC5)CC4)cc3)n2)ccc1CNC(=O)N1CC(OC(C)C)C1 (centres unmarked) [Example 51, N-(4-(2-((4-(1-((1-(5-((2,6-dioxopiperidin-3-yl)oxy)pyridin-2-yl)piperidin-4-yl)methyl)piperidin-4-yl)phenyl)amino)pyrimidin-4-yl)-2-methylbenzyl)-3-isopropoxyazetidine-1-carboxamide] | 24.0% | 86.7% | 99.3%
13 | Cc1cc(-c2ccnc(Nc3ccc(C4CCN(CC5CCN(c6ccc(NC7CCC(=O)NC7=O)cn6)CC5)CC4)cc3)n2)ccc1CNC(=O)N1CC(OC(C)C)C1 (centres unmarked) [Example 53, N-(4-(2-((4-(1-((1-(5-((2,6-dioxopiperidin-3-yl)amino)pyridin-2-yl)piperidin-4-yl)methyl)piperidin-4-yl)phenyl)amino)pyrimidin-4-yl)-2-methylbenzyl)-3-isopropoxyazetidine-1-carboxamide] | 13.3% | 86.7% | 99.3%
14 | Cc1cc(-c2ccnc(Nc3ccc(N4CCN(CC5CCN(c6cccc(NC7CCC(=O)NC7=O)c6)CC5)CC4)cc3)n2)ccc1CNC(=O)c1cnn(C(C)(C)C)c1 (centres unmarked) [Example 59, 1-(tert-butyl)-N-(4-(2-((4-(4-((1-(3-((2,6-dioxopiperidin-3-yl)amino)phenyl)piperidin-4-yl)methyl)piperazin-1-yl)phenyl)amino)pyrimidin-4-yl)-2-methylbenzyl)-1H-pyrazole-4-carboxamide] | 72.0% | 97.0% | 99.0%
15 | Cc1cc(-c2ccnc(Nc3cnn(C4CCN(CC5CN(c6ccc7c(c6)C(=O)N(C6CCC(=O)NC6=O)C7=O)C5)CC4)c3)n2)ccc1CNC(=O)c1cn(C(C)(C)C)nn1 (centres unmarked) [Example 40, 1-(tert-butyl)-N-(4-(2-((1-(1-((1-(2-(2,6-dioxopiperidin-3-yl)-1,3-dioxoisoindolin-5-yl)azetidin-3-yl)methyl)piperidin-4-yl)-1H-pyrazol-4-yl)amino)pyrimidin-4-yl)-2-methylbenzyl)-1H-1,2,3-triazole-4-carboxamide] | 69.5% | 95.5% | 98%
16 | Cc1c(NC(=O)c2cn(C(C)(C)C)nn2)cc(F)cc1-c1ccnc(Nc2ccc3c(c2)CN(CC2CCN(c4ccc5c(c4)C(=O)N(C4CCC(=O)NC4=O)C5=O)CC2)CC3)n1 (centres unmarked) [Example 6, 1-(tert-butyl)-N-(3-(2-((2-((1-(2-(2,6-dioxopiperidin-3-yl)-1,3-dioxoisoindolin-5-yl)piperidin-4-yl)methyl)-1,2,3,4-tetrahydroisoquinolin-7-yl)amino)pyrimidin-4-yl)-5-fluoro-2-methylphenyl)-1H-1,2,3-triazole-4-carboxamide] |  | −2.5% | 10%
17 | Cc1cc(-c2ccnc(Nc3cnn(C4CCN(CC5CCN(c6ccc7c(c6)C(=O)N(C6CCC(=O)NC6=O)C7=O)CC5)CC4)c3)n2)ccc1CNC(=O)N1CC(OC(C)C)C1 (centres unmarked) [Example 21, N-(4-(2-((1-(1-((1-(2-(2,6-dioxopiperidin-3-yl)-1,3-dioxoisoindolin-5-yl)piperidin-4-yl)methyl)piperidin-4-yl)-1H-pyrazol-4-yl)amino)pyrimidin-4-yl)-2-methylbenzyl)-3-isopropoxyazetidine-1-carboxamide] | 70% | 96.5% | 99%
